Data reported in patent US7056943B2, “Substituted indole oxo-acetyl amino acetic acid derivatives as inhibitors of plasminogen activator inhibitor-1 (PAI-1)” (Wyeth, priority 2002, dated 2006).

What was measured:
human PAI-1 = human PAI-1 (Homo sapiens, UniProt P05121); assay: Assay for determining IC50 of inhibition of PAI-1 (active PAI-1 bound to tPA-coated plate, antibody detection); format: binding; settings: human PAI-1 50 ng/ml, pH 7.5, tPA-coated plate
Protocol: Assay for Determining IC50 of Inhibition of PAI-1
This assay was based upon the non-SDS dissociable interaction between tPA and active PAI-1. Assay plates were initially coated with human tPA (10 μg/ml). Test compounds were dissolved in DMSO at 10 mM, then diluted with physiologic buffer (pH 7.5) to a final concentration of 1–50 μM. The test compounds were incubated with human PAI-1 (50 ng/ml) for 15 minutes at room temperature. The tPA-coated plate was washed with a solution of 0.05% Tween 20 and 0.1% BSA, then the plate is blocked with a solution of 3% BSA. An aliquot of the test compound/PAI-1 solution was then added to the tPA-coated plate, incubated at room temperature for 1 hour, and washed. Active PAI-1 bound to the plate was assessed by adding an aliquot of a 1:1000 dilution of the 33B8 monoclonal antibody against human PAI-1, and incubating the plate at room temperature for 1 hour (Molecular Innovations, Royal Oak, Mich.). […] The plate was incubated 45 minutes at room temperature, and color development is determined at OD405nm. The quantitation of active PAI-1 bound to tPA at varying concentrations of the test compound was used to determine the IC50. Results were analyzed using a logarithmic best-fit equation. The assay sensitivity is 5 ng/ml of human PAI-1 as determined from a standard curve ranging from 0–100 ng/ml.

[1] = biological target: T1, recombinant human plasminogen activator inhibitor-1 (Homo sapiens, UniProt P05121); assay: Primary screen for the PAI-1 inhibition (residual tPA activity, chromogenic substrate Spectrozyme-tPA); format: biochemical; settings: 25 uM test compound; 140 nM PAI-1, 70 nM tPA, pH 6.6
T1 construct: purchased Molecular Innovations, Royal Oak, Mich
T1 sequence (P05121 24-402): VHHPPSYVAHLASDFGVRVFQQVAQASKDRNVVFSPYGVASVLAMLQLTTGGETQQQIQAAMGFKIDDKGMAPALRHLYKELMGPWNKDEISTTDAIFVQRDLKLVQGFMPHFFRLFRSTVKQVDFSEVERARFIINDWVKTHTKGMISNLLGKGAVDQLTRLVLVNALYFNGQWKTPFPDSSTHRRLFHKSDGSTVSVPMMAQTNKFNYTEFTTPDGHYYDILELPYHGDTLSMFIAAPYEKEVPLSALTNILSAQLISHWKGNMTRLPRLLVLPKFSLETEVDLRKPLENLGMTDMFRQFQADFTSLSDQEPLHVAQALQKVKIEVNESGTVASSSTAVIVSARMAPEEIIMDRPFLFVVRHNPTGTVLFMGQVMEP
Protocol: Primary Screen for the PAI-1 Inhibition The ability of the compounds of this invention to inhibit plasminogen activator inhibitor-1 was established by the following experimental procedures: Test compounds were dissolved in DMSO at a final concentration of 10 mM, then diluted 100× in physiologic buffer. The inhibitory assay was initiated by the addition of the test compound (1–100 μM final concentration, maximum DMSO concentration of 0.2%) in a pH 6.6 buffer containing 140 nM recombinant human plasminogen activator inhibitor-1 (Molecular Innovations, Royal Oak, Mich.). Following a 1 hour incubation at room temperature, 70 nM of recombinant human tissue plasminogen activator (tPA) was added, and the combination of the test compound, PAI-1 and tPA was incubated for an additional 30 minutes. Following the second incubation, Spectrozyme-tPA (American Diagnostica, Greenwich, Conn.), a chromogenic substrate for tPA, was added and absorbance was read at 405 nm at 0 and 60 minutes. Relative PAI-1 inhibition was equal to the residual tPA activity in the presence of the test compounds and PAI-1. Control treatments included the complete inhibition of tPA by PAI-1 at the molar ratio employed (2:1), and the absence of any effect of the test compound on tPA alone.

human PAI-1, sequence (P05121 24-402): as above

Structure (SMILES)	IC50 (human PAI-1) [µM]	melting point	inhibition at 25 µM [1] [%]
Cc1cccc(-c2ccc3c(c2)c(C(=O)C(=O)NCC(=O)O)cn3Cc2ccc(C(C)(C)C)cc2)c1 [Example 1, {[[1-(4-tert-butylbenzyl)-5-(3-methylphenyl)-1H-indol-3-yl](oxo)acetyl]amino}acetic acid]	29	120 to 121 °C	
CN(CC(=O)O)C(=O)C(=O)c1cn(Cc2ccccc2)c2ccc(-c3cccc(OC(F)(F)F)c3)cc12 [Example 3, 2-[(2-{1-Benzyl-5-[3-(trifluoromethoxy)phenyl]-1H-indol-3-yl}-2-oxoacetyl)(methyl)amino]acetic acid]		178 to 179 °C	24
O=C(O)CNC(=O)C(=O)c1cn(Cc2ccccc2)c2ccc(-c3ccc(OC(F)(F)F)cc3)cc12 [Example 2, 2-[(2-{1-Benzyl-5-[4-(trifluoromethoxy)phenyl]-1H-indol-3-yl}-2-oxoacetyl)amino]acetic acid]	28	211 to 212 °C (dec.)	
